Test results published in the supplement of paper PMC10627819.

Columns and labels:
B. subtilis 168 [1] = test: fitness (endpoint OD595 vs no drug) (fraction); higher = more growth
Method in brief: (§1)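 Background-subtracted growth curves were the basis for fitness, taken as the optical density at entry into stationary phase over the robust mean of no-drug control wells. A cap of 1 was applied. The curves came from OD595 readings every 30 min for 14 h at 37 °C, in 384-well plates seeded at OD595 0.01 with 30 µl, or 55 µl for S. pneumoniae.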

S. pneumoniae D39V [2] = test: as above
Method in brief: as §1

S. aureus Newman [3] = test: as above
Method in brief: as §1

B. subtilis 168 [4] = test: Bliss interaction score (quartile over a dose matrix) (fitness difference); higher = more antagonism (negative = synergy)
Method in brief: (§2)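 The Bliss score was calculated by subtracting the expected fitness, the product of single-drug values, from the observed fitness. OD595 at entry into stationary phase, over the plate's robust no-drug mean and capped at 1, served as the fitness readout. Single-drug values were inferred from combination data, and scores are summarised by quartiles across technical, biological and donor/recipient replicates.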

S. pneumoniae D39V [5] = test: as above
Method in brief: as §2

S. aureus Newman [6] = test: as above
Method in brief: as §2

S. aureus DSM 20231 = test: as above
Method in brief: as §2
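Wherever Bliss interaction score (quartile over a dose matrix) is given: first quartile when negative (synergy) and third quartile when positive (antagonism).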

CC1=C(C(=O)O)N2C(=O)[C@@H](NC(=O)[C@H](N)c3ccccc3)[C@H]2SC1 [Cephalexin] + CN[C@@H]1[C@H](O)[C@H](NC)[C@H]2O[C@@]3(O)C(=O)C[C@@H](C)O[C@H]3O[C@@H]2[C@H]1O [Spectinomycin]
fitness
Conditions	first compound 0.125 µg/mL	first compound 0.25 µg/mL	first compound 0.5 µg/mL	first compound 1 µg/mL
B. subtilis 168 [1], partner 2 µg/mL	≥ 1	0.933	0.978	–
B. subtilis 168 [1], partner 4 µg/mL	0.981	0.978	≥ 1	–
B. subtilis 168 [1], partner 8 µg/mL	0.905	0.928	0.884	–
S. aureus Newman [3], partner 4 µg/mL	–	0.904	0.951	0.951
S. aureus Newman [3], partner 8 µg/mL	–	0.982	≥ 1	≥ 1
S. aureus Newman [3], partner 16 µg/mL	–	0.949	0.957	≥ 1

fitness, one replicate
Conditions	first compound 0.125 µg/mL	first compound 0.25 µg/mL	first compound 0.5 µg/mL	first compound 1 µg/mL	first compound 2 µg/mL	first compound 4 µg/mL
S. aureus Newman [3], partner 16 µg/mL	–	–	–	–	0.969	–
S. aureus Newman [3], partner 32 µg/mL	–	–	0.681	0.713	0.651	–
S. aureus Newman [3], partner 64 µg/mL	–	–	0.127	0.071	0.1	–
S. pneumoniae D39V [2], partner 4 µg/mL	0.874	0.91	0.993	0.474	0.0025	0
S. pneumoniae D39V [2], partner 8 µg/mL	0.892	0.884	0.908	0.587	0.0549	0.0577
S. pneumoniae D39V [2], partner 16 µg/mL	0.875	0.82	0.859	–	–	–

Conditions	Bliss interaction score
B. subtilis 168 [4]	0.0659
S. aureus DSM 20231	0.0503
S. aureus Newman [6]	0.0839
S. pneumoniae D39V [5]	0.0578

CNC(C)C1CCC(N)C(OC2C(N)CC(N)C(OC3OCC(C)(O)C(NC)C3O)C2O)O1 (configuration not stated) [Gentamicin] + Cc1onc(-c2ccccc2)c1C(=O)N[C@@H]1C(=O)N2[C@@H]1SC(C)(C)[C@@H]2C(=O)O [Oxacillin]
main component drawn
Conditions	fitness
B. subtilis 168 [1], first compound 0.0625 µg/mL, partner 0.002 µg/mL	0.899
B. subtilis 168 [1], first compound 0.0625 µg/mL, partner 0.004 µg/mL	0.82
B. subtilis 168 [1], first compound 0.125 µg/mL, partner 0.002 µg/mL	0.275
B. subtilis 168 [1], first compound 0.125 µg/mL, partner 0.004 µg/mL	0.0851
B. subtilis 168 [1], first compound 0.125 µg/mL, partner 0.008 µg/mL	0.0748
B. subtilis 168 [1], first compound 0.25 µg/mL, partner 0.002 µg/mL	0.0462
B. subtilis 168 [1], first compound 0.25 µg/mL, partner 0.004 µg/mL	0.0441
B. subtilis 168 [1], first compound 0.25 µg/mL, partner 0.008 µg/mL	0.0454
S. aureus Newman [3], first compound 0.5 µg/mL, partner 0.0156 µg/mL	0.82
S. aureus Newman [3], first compound 0.5 µg/mL, partner 0.0312 µg/mL	0.782
S. aureus Newman [3], first compound 0.5 µg/mL, partner 0.0625 µg/mL	0.672
S. aureus Newman [3], first compound 1 µg/mL, partner 0.0156 µg/mL	0.851
S. aureus Newman [3], first compound 1 µg/mL, partner 0.0312 µg/mL	0.776
S. aureus Newman [3], first compound 1 µg/mL, partner 0.0625 µg/mL	0.765
S. aureus Newman [3], first compound 2 µg/mL, partner 0.0156 µg/mL	0.901
S. aureus Newman [3], first compound 2 µg/mL, partner 0.0625 µg/mL	0.666
S. pneumoniae D39V [2], first compound 2 µg/mL, partner 0.005 µg/mL	0.985
S. pneumoniae D39V [2], first compound 2 µg/mL, partner 0.01 µg/mL	0.995
S. pneumoniae D39V [2], first compound 2 µg/mL, partner 0.02 µg/mL	0.953
S. pneumoniae D39V [2], first compound 2 µg/mL, partner 0.04 µg/mL	0.55
S. pneumoniae D39V [2], first compound 4 µg/mL, partner 0.005 µg/mL	0.999
S. pneumoniae D39V [2], first compound 4 µg/mL, partner 0.01 µg/mL	0.982
S. pneumoniae D39V [2], first compound 4 µg/mL, partner 0.02 µg/mL	0.947
S. pneumoniae D39V [2], first compound 4 µg/mL, partner 0.04 µg/mL	0.549
S. pneumoniae D39V [2], first compound 8 µg/mL, partner 0.005 µg/mL	0.963
S. pneumoniae D39V [2], first compound 8 µg/mL, partner 0.01 µg/mL	0.985
S. pneumoniae D39V [2], first compound 8 µg/mL, partner 0.02 µg/mL	0.939
S. pneumoniae D39V [2], first compound 8 µg/mL, partner 0.04 µg/mL	0.553

fitness, one replicate, main component drawn
Conditions	partner 0.0078 µg/mL	partner 0.0155 µg/mL	partner 0.0156 µg/mL	partner 0.031 µg/mL	partner 0.0312 µg/mL	partner 0.0625 µg/mL	partner 0.075 µg/mL	partner 0.15 µg/mL	partner 0.3 µg/mL
B. subtilis 168 [1], first compound 0.0625 µg/mL	≥ 1	0.976	–	0.948	–	–	0.663	0.033	0.0409
B. subtilis 168 [1], first compound 0.125 µg/mL	0.923	0.907	–	0.92	–	–	0.0517	0.0783	0.0465
B. subtilis 168 [1], first compound 0.25 µg/mL	0.265	0.218	–	0.171	–	–	0.0546	0.0554	0.0541
S. aureus Newman [3], first compound 0.375 µg/mL	–	–	0.785	–	0.736	0.648	–	–	–
S. aureus Newman [3], first compound 0.75 µg/mL	–	–	0.741	–	0.709	0.632	–	–	–
S. aureus Newman [3], first compound 1.5 µg/mL	–	–	0.581	–	0.106	0.113	–	–	–

main component drawn
Conditions	Bliss interaction score
B. subtilis 168 [4]	-0.0859
S. aureus DSM 20231	0.0545
S. aureus Newman [6]	0.0666
S. pneumoniae D39V [5]	0.104

CC1=C(C(=O)O)N2C(=O)[C@@H](NC(=O)[C@H](N)c3ccccc3)[C@H]2SC1 [Cephalexin] + CC1=C\[C@@H](O)CC(=O)Cc2nc(co2)C(=O)N2CCC=C2C(=O)O[C@H](C(C)C)[C@H](C)/C=C/C(=O)NC\C=C\1 [Virginiamycin M1]
fitness
Conditions	first compound 0.125 µg/mL	first compound 0.25 µg/mL	first compound 0.5 µg/mL	first compound 1 µg/mL	first compound 4 µg/mL
B. subtilis 168 [1], partner 0.0625 µg/mL	0.966	0.944	0.955	–	–
B. subtilis 168 [1], partner 0.125 µg/mL	0.944	0.926	0.99	–	–
B. subtilis 168 [1], partner 0.25 µg/mL	0.983	0.911	0.989	–	–
S. aureus Newman [3], partner 0.0625 µg/mL	–	≥ 1	0.994	≥ 1	–
S. aureus Newman [3], partner 0.125 µg/mL	–	≥ 1	≥ 1	≥ 1	–
S. aureus Newman [3], partner 0.25 µg/mL	–	≥ 1	≥ 1	≥ 1	–
S. pneumoniae D39V [2], partner 2 µg/mL	–	–	–	0.663	0.0521

fitness, one replicate
Conditions	first compound 0.125 µg/mL	first compound 0.25 µg/mL	first compound 0.5 µg/mL	first compound 1 µg/mL	first compound 2 µg/mL	first compound 4 µg/mL
S. aureus Newman [3], partner 0.5 µg/mL	–	–	0.847	0.951	0.986	–
S. aureus Newman [3], partner 1 µg/mL	–	–	≥ 1	≥ 1	≥ 1	–
S. aureus Newman [3], partner 2 µg/mL	–	–	0.936	0.923	0.978	–
S. pneumoniae D39V [2], partner 0.15 µg/mL	–	–	–	0.934	0.646	0.0743
S. pneumoniae D39V [2], partner 0.3 µg/mL	–	–	–	0.885	0.628	0.0023
S. pneumoniae D39V [2], partner 0.5 µg/mL	0.967	0.964	≥ 1	0.562	0.316	0.338
S. pneumoniae D39V [2], partner 1 µg/mL	0.966	0.991	≥ 1	0.504	0.0366	0.0659
S. pneumoniae D39V [2], partner 2 µg/mL	0.954	≥ 1	≥ 1	–	–	–

Conditions	Bliss interaction score
B. subtilis 168 [4]	0.0598
S. aureus DSM 20231	0.0651
S. aureus Newman [6]	0.023
S. pneumoniae D39V [5]	0.16
